Test results from US5990083A, “Multicatalytic protease inhibitors” (Cephalon, Inc., priority 1997, dated 1999).

How the values were obtained:
control soleus muscle = assay: Effect of MCP inhibitors on control muscle protein content; format: in vivo, rat; conditions: Table 1; treated soleus versus vehicle-injected contralateral muscle
Excerpt: (§1) Juvenile female Sprague-Dawley rates (80-90 g) were tail-cast, hind limb suspended as in Jetspers, S. R. and Tischler, M. E., (1984) J. Appl. Physiol. 57: 1472-1479. The animal's hind limbs were elevated above the floor of the cage with each animal housed individually. Animals had free access to food and water, and were weighed at the time of suspension and at time of termination. During the suspension period the animals were checked daily to ensure that their toes were not touching the floor of the cage, and that there was no swelling of the tail due to the cast.
(§2) Animals were treated as in group B, except that 1 mM MCP inhibitor, contained in dimethysulfoxide (DMSO), was injected into the soleus of one leg and DMSO only into the contralateral soleus. Thus each experiment consisted of two control groups and the testing of MCP inhibitors of the invention. The completion of five such experiments with different pairs of inhibitors provided for an "n" value of 10 for testing each MCP inhibitor and with each tested in two different shipments of animals.
(§3) After the animal was sacrificed, the soleus was excised, trimmed of fat and connective tissue, and carefully weighed. The muscle was then homogenized in 10% trichloroacetic acid (TCA) and the precipitated protein pelleted by centrifugation. The pellet was then washed once with 10% TCA and once with ethanol:ether (1:1). The final pellet was solubilized in 4 ml of 1N sodium hydroxide. The sample was then analyzed for protein content by the biuret procedure, using albumin as a standard.
The effect of MCP inhibitors on total muscle protein content was examined primarily by paired comparison with the untreated contralateral muscle. The ratio of contents was calculated and then analyzed statistically by analysis of variance ("ANOVA"). The left leg was always the treated leg so that the protein content ratios could be compared to the non-treated control animals as well. In this way, a significant difference can be shown by comparing the protein content of the two legs, as well as the relative effectiveness of the tested MCP inhibitors. […]

[1] = test system: unweighting atrophy of the soleus muscle; assay: Inhibition of unweighting atrophy of the soleus muscle in juvenile rats (muscle protein content); format: in vivo, rat; conditions: for Protein, End (day 3 of unweighting) / Effect (%), change in protein content during day 3 of unweighting: Table 2; for Protein, End (day 3 of unweighting): 24 hours after in situ soleus injection at day 2 of unweighting, mersalyl 200 nM aqueous; for Protein, End (day 3 of unweighting) / Protein, Treatment (unweighted muscle): MCP inhibitor 1 mM in DMSO; for Effect (%), change in protein content during day 3 of unweighting: End versus Start (estimated day 2 content); for Effect (%) on unweighted muscle protein / Protein, Treatment (unweighted muscle): Table 3; for Effect (%) on unweighted muscle protein: Treatment versus Vehicle contralateral muscle; for Protein, Treatment (unweighted muscle): treated soleus, contralateral muscle received vehicle, mersalyl 200 nM
Procedure: The effect of several inhibitors on the unweighting atrophy of the soleus muscle in juvenile rats was determined. See Tischler, M. E. (1990) Metabolism 39/7: 756-763 (hereinafter "Tischler--1990") for a general discussion of the procedure.
as §1
Each experiment began with the suspension of 20 rats which were randomly divided into 4 groups of 5 animals each. Group A was suspended for just 2 days and provided baseline data to approximate the soleus muscle size in other animals suspended for longer times. Average body weights for the groups at the outset of the study were compared and used as a correction factor for body size differences. […] See Tischler--1990. At 2 days after unweighting commenced, an aqueous solution of mersalyl (200 nM; 4 μl/100 g initial body wt) was injected into one soleus, as described previously. The contralateral muscle was injected with a similar volume of 0.9% saline ("Vehicle"). The animals were maintained under Innovar-vet (10 μl/100 g body wt) tranquilization during the in situ injection procedure. After the injections, the animals were suspended for an additional 24 hours and the soleus was removed. Groups C and D for each experiment were used for testing each of two different embodiments of the disclosed compounds.
as §2, §3
The effect of MCP inhibitors on total muscle protein content was examined primarily by paired comparison with the untreated contralateral muscle. The ratio of contents was calculated and then analyzed statistically by analysis of variance ("ANOVA"). The left leg was always the treated leg so that the protein content ratios could be compared to the non-treated control animals as well. In this way, a significant difference can be shown by comparing the protein content of the two legs, as well as the relative effectiveness of the tested MCP inhibitors. A paired student test was also performed for the effect of each separate treatment. The non-treated control data also provided an estimate of protein content of day 2. This allowed approximation of the protein changes over the 24 hours of treatment for each of the Groups B, C, and D.

[2] = test system: Ala4→Val mutant SOD-1 in transformed 293 cells; assay: Specificity of MCP activity in SOD-1 turnover, Ala4→Val cell line; format: cell-based, human; conditions: 20 μM, 24 hours; FIG. 7; relative to untreated samples
Procedure: (§4) Res. Comm. (1988) 153: 1201.), a cell penetrating "calpain" inhibitor (calpain is a cysteine protease); and DK-3 (Enzyme Systems Products, Dublin, Calif. CBZ-Phe-Ala-CHN2) inhibits lysosomal protease activity. […] Cell lines expressing the indicated SOD-1 isoforms were incubated for 24 hours with the following protease inhibitors: Compound 14, 20 μM; Calpeptin, 10 μM; DK-3, 5 μM; Compound 16, 20 μM; or with DMSO as a negative control. After the 24 hours of incubation with the inhibitors, SOD-1 levels were measured by densitometric scanning of immunoblots. […] Each data point is the average of results from three experiments.

[3] = test system: Ile113→Thr mutant SOD-1 in human 293 cells; assay: SOD-1 levels in transiently transfected 293 cells (immunoblot); conditions: 5 μM, 24 hours, FIG. 5
Procedure: The human kidney cell line designated 293 (human 293 cells or 293 cells)was obtained from the American Type Culture Collection (ATCC), 12301 Parklawn Drive, Rockville, Md., 20852 (ATCC #CRL 1573) and grown in Dulbecco's modified Eagle's medium with 4.6 g/L glucose, 10% heat-inactivated horse serum (Gibco/Life Technologies Inc. Gaithersburg, Md.). The human 293 cells were maintained at 37° C. in an atmosphere of 5% CO2. The 293 cells were transiently transfected using the calcium phosphate method (Chen, C. et al., Biotechniques 6: 632 (1988). The pCMV-113 SOD-1 expression vector was introduced into 293 cells and 24 hours later, the cells were incubated with either compound 34, compound 14, or compound 24, all at a concentration of 5 μM, for a duration of 24 hours. The known MCP and other protease inhibitory compounds were solubilized in dimethyl sulfoxide (DMSO). Other 293 cell cultures were incubated with an equal volume of DMSO or left in medium only as negative controls.
Approximately 48 hours prior to receiving test compounds, 5×10^5 293 cells were seeded in 36 mm dishes and maintained at 37° C. in an atmosphere of 5% CO2. Cells were incubated with MCP inhibitors (compound 34, 14 or 24) or with DMSO as a negative control for a duration of 24 hours. Cell lysates were prepared by lysing the cells in approximately 75 μl of phosphate-buffered saline (PBS) by freeze/thaw cycling. Protein concentrations of the cell lysates were determined using the BCA method (Pierce, Rockford, Ill.) and 2 to 2.5 μg of each sample was electrophoresed on a 4-20% polyacrylamide geol (Novex, San Diego, Calif.) using a Tris/glycine/SDS (25 mM Tris/192 mM glycine/0.1% SDS) buffer system. […] Stained bands corresponding to SOD-1 protein were quantitated using a DocuGel V image analysis system and RFLPscan software (Scanalytics, Billerica, Mass.). Levels of SOD-1 are expressed as units of induction relative to the negative control (i.e., units of experimental divided by units of control).

[4] = test system: wild-type SOD-1 in transformed 293 cells; assay: Specificity of MCP activity in SOD-1 turnover, wild-type cell line; format: cell-based, human; conditions: 20 μM, 24 hours; FIG. 7
Procedure: as §4

[5] = test system: wild-type and FALS mutant (Ala4→Val, Ile113→Thr) SOD-1 in 293 cells; assay: Dose response of SOD-1 isoforms in stably transformed 293 cell lines; format: cell-based, human
Procedure: Cells were maintained in G418 selection for three weeks at which time drug selection was removed and the G418-resistant colonies of each transformed cell type were pooled for further growth. Compound 14 was utilized in these studies.
Cell lines expressing the indicated SOD-1 isoforms were incubated with various concentrations of compound 14 for 24 hours at which time the SOD-1 levels were measured by densitometric scanning of immunoblots.

Row | Compound | Protein, Treatment (control muscle) (control soleus muscle) | Protein, End (day 3 of unweighting) [1] | Effect (%), change in protein content during day 3 of unweighting [1] | Effect (%) on unweighted muscle protein [1] | Protein, Treatment (unweighted muscle) [1] | Increase in the accumulation of SOD-1 protein (Ala4→Val mutant) [2] | SOD-1 levels compared to controls [3] | Wild-type SOD-1 accumulation [4] | Concentration giving maximal SOD-1 accumulation ([5]; 24 hours, FIG. 6) | Reduction of wild-type and mutant SOD-1 degradation ([5]; summary statement) | Accumulation of SOD-1 protein levels ([5]; various concentrations, 24 hours, FIG. 6) | Effect on turnover of the wild-type SOD-1 protein ([5]; wild-type SOD-1 cell line, dose response)
1 | COC(=O)CCCCCCCC(C(=O)N[C@@H](CCCNC(=N)NS(=O)(=O)c1c(C)c(C)c2c(c1C)CCC(C)(C)O2)C(=O)N[C@H](C=O)CC(C)C)C1CCCC1 (stereo partly drawn) [Compound 20, 9-Methoxycarbonyl-2-cyclopentyl-nonanoyl-N^g-(2,2,5,7,8-pentamethylchroman-6-sulfonyl)-L-arginyl-L-leucinal] | 5.9 mg/muscle | 6.2 mg/muscle | -4% | 5% | 6.2 mg/muscle | – | – | – | – | – | – | –
2 | CC(C)C[C@@H](C=O)NC(=O)[C@H](CCCNC(=N)N[N+](=O)[O-])NC(=O)C(CCCCCCCCC#N)C1CCCC1 (stereo partly drawn) [Compound 14, 10-cyano-2-cyclopentyldecanoyl-N^g-nitro-L-arginyl-L-leucinal] | 6.1 mg/muscle | 6.4 mg/muscle | 0% | 7% | 6.4 mg/muscle | three-fold | modestly elevated | slight increase | approximately 20 μM | reduces wild-type and mutant SOD-1 degradation in a dose-dependent manner | significant accumulations of SOD-1 protein levels | statistically significant effect
